From patent US20220380341A1, “INHIBITORS OF HIV-1 NEF FOR THE TREATMENT OF HIV DISEASE” (priority 2018, published 2022)
Where two headings read alike, the source gives them in different places.

Columns and labels:
[1] = tested on: HIV-1NL4-3; test: HIV-1 infectivity assay in TZM-bl reporter cell line (LTR-luciferase, 48 h); format: cell-based; details: for inhibition at 1 µM: Human immunodeficiency virus 1, TZM-bl
Method in brief: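 TZM-bl cells (HIV-1 LTR-luciferase) infected with HIV-1NL4-3 with compound at 1 μM; luciferase read 48 h later. Percent inhibition normalized to DMSO wild-type infection (0%) and Nef-defective HIV-1 infection (100% of Nef-dependent effect). Viability in uninfected TZM-bl cells by Cell Titer Blue.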

[2] = tested on: TZM-bl cell line; format: cell-based
Method in brief: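 Nef-dependent infectivity in TZM-bl cells: HIV-1NL4-3 infection with 1 μM compound, luciferase read at 48 h, normalized against DMSO wild-type and Nef-defective controls. Compound cytotoxicity in uninfected cells measured by Cell Titer Blue.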

[3] = target: HIV-1 NefNL4-3 (Human immunodeficiency virus type 1 group M subtype B, UniProt P03406, A33V/T15A/T51N/V11I); test: Surface plasmon resonance binding to recombinant full-length Nef (NL4-3); details: for RU30/RUNef (extent of binding): response units at 30 μM relative to Nef immobilized on the SPR chip
[4] = 1.0 μM, TZM-bl reporter cell line, Table 4, read-out: % Infectivity Inhibition
[5] = 48 h, Table 1, TZM-bl cells, 1 μM, 48 h, 100% = Nef-defective HIV-1, read-out: HIV-1 Infectivity % Inhibition Norm. to Δ-Nef @ 1 μM
[6] = KD, M, Table 4, SPR fit 2-step induced fit, KD = koff/kon × koff2/(koff2 + kon2)
[7] = Nef NL4-3 Binding, SPR 2-state fitting KD, Table 1, 2-step induced-fit model
[8] = Table 4, 2-step induced fit, T = 1/koff2
[9] = read-out: Nef NL4-3 Binding, SPR 1:1 or 2-site fitting KD2, Table 1, 2-site fit, second component

Structure (SMILES)	inhibition at 1 µM [1, 4] [%]	inhibition at 1 µM [1, 5] [%]	% Cell Viability ([2]; human, 1 μM) [%]	Percent Viability @ 1 μM (TZM-bl cells) ([2]; human, 1 μM) [%]	Kd [3] [M]	Kd [3, 7] [M]	Kd [3, 9] [M]	RU30/RUNef (extent of binding) [3] [E- 03]	further results
COC(=O)N1CCC(c2nn(-c3nc4ccccc4[nH]3)c(O)c2CCc2ccc(F)cc2)CC1 [Compound I-740, methyl 4-[1-(1H-1,3-benzodiazol-2-yl)-4-[2-(4-fluorophenyl)ethyl]-5-hydroxy-1H-pyrazol-3-yl]piperidine-1-carboxylate]	39.1	39.1	89.8	89.8	1.57e-07	5.44e-07	3.38e-06	7.81	Kd [3, 6]: 5.44e-07 M; T, minutes (residence time) [3, 8]: 1.26E + 01 minutes
O=S(=O)(c1cccnc1)N1CCC(c2nn(-c3nc4ccccc4[nH]3)c(O)c2CCc2ccc(F)cc2)CC1 [Compound I-742, 1-(1H-1,3-benzodiazol-2-yl)-4-[2-(4-fluorophenyl)ethyl]-3-[1-(pyridine-3-sulfonyl)piperidin-4-yl]-1H-pyrazol-5-ol]	100	125	77.3	77.3		1.43e-12	5.62e-05	2.76	Kd [3, 6]: 1.43e-12 M
CC(=O)N1CCC(c2nn(-c3nc4ccccc4[nH]3)c(O)c2Cc2ccc(F)c(F)c2)CC1 [Compound I-744, 1-{4-[1-(1H-1,3-benzodiazol-2-yl)-4-[(3,4-difluorophenyl)methyl]-5-hydroxy-1H-pyrazol-3-yl]piperidin-1-yl}ethan-1-one]	51.2	51.2	98.2	98.2	2.35e-08	1.95e-06	7.28e-06	4.92	Kd [3, 6]: 1.95e-06 M; T, minutes (residence time) [3, 8]: 5.61E + 00 minutes
CC(C)(O)C(=O)N1CCC(c2nn(-c3nc4ccccc4[nH]3)c(O)c2CCc2ccc(F)cc2)CC1 [Compound I-745, 1-{4-[1-(1H-1,3-benzodiazol-2-yl)-4-[2-(4-fluorophenyl)ethyl]-5-hydroxy-1H-pyrazol-3-yl]piperidin-1-yl}-2-hydroxy-2-methylpropan-1-one]		23.8		100.0	1.01e-05				
O=S(=O)(C1CCCCC1)N1CCC(c2nn(-c3nc4ccccc4[nH]3)c(O)c2CCc2ccc(F)cc2)CC1 [Compound I-747, 1-(1H-1,3-benzodiazo1-2-y1)-3-[1-(cyclohexanesulfonyl)piperidin-4-yl]-4-[2-(4-fluorophenyl)ethyl]-1H-pyrazol-5-ol]									HIV Infectivity % Control @ 1 μM ([1]; 1 μM, TZM-bl reporter cells, % of control): 30.9%; HIV-1 Infectivity % Inhibition Norm. to Δ-Nef @ 1 μM ([1]; 1 μM, TZM-bl, normalized: DMSO wild-type HIV-1 = 0%, Nef-defective HIV-1 = 100%): 179.3%; HIV-1 Infectivity % Inhibition Norm. to Δ-Nef @ 1 μM ([1]; Table 1, TZM-bl cells, 1 μM, 48 h, 100% = Nef-defective HIV-1): 179.3%; Percent Viability @ 1 μM (TZM-bl cells) [2]: 86.9%; Kd ([3]; KD, two-step induced-fit model, Reichert SPR, Table 3, read-out: Reichert SPR Nef NL43 (M) two-step fitting): 0.000257 M; Kd ([3]; Table 1, 1:1 Langmuir fit where the KD2 cell says '1 to 1 fitting', else 2-site fit, read-out: Nef NL4-3 Binding, SPR 1:1 or 2-site fitting KD1): 8.91e-08 M; Kd ([3]; Table 1, 2-site fit, second component, read-out: Nef NL4-3 Binding, SPR 1:1 or 2-site fitting KD2): 1.56e-06 M; Kd ([3]; Table 1, 2-step induced-fit model, read-out: Nef NL4-3 Binding, SPR 2-state fitting KD): 0.000257 M
O=S(=O)(C1CC1)N1CCC(c2nn(-c3nc4ccccc4[nH]3)c(O)c2CCc2ccc(F)cc2)CC1 [Compound I-748, 1-(1H-1,3-benzodiazol-2-yl)-3-[1-(cyclopropanesulfonyl)piperidin-4-yl]-4-[2-(4-fluorophenyl)ethyl]-1H-pyrazol-5-ol]		22.3		94.8	4.15e-06				
Nc1ccc(S(=O)(=O)N2CCC(c3nn(-c4nc5ccccc5[nH]4)c(O)c3CCc3ccc(F)cc3)CC2)cc1 [Compound I-749, 3-[1-(4-aminobenzenesulfonyl)piperidin-4-yl]-1-(1H-1,3-benzodiazol-2-yl)-4-[2-(4-fluorophenyl)ethyl]-1H-pyrazol-5-ol]		64.1		78.7	1.26e-09	4.02e-07	7.55e-07		
CC(C)CS(=O)(=O)N1CCC(c2nn(-c3nc4ccccc4[nH]3)c(O)c2CCc2ccc(F)cc2)CC1 [Compound I-750, 1-(1H-1,3-benzodiazol-2-yl)-4-[2-(4-fluorophenyl)ethyl]-3-[1-(2-methylpropanesulfonyl)piperidin-4-yl]-1H-pyrazol-5-ol]		63.7		93.0	1.38e-10	1.16e-06	5.72e-10		
CC(C)S(=O)(=O)N1CCC(c2nn(-c3nc4ccccc4[nH]3)c(O)c2CCc2ccc(F)cc2)CC1 [Compound I-751, 1-(1H-1,3-benzodiazol-2-yl)-4-[2-(4-fluorophenyl)ethyl]-3-[1-(propane-2-sulfonyl)piperidin-4-yl]-1H-pyrazol-5-ol]		22.3		101.1	5.6e-07				
O=S(=O)(C1CCCC1)N1CCC(c2nn(-c3nc4ccccc4[nH]3)c(O)c2CCc2ccc(F)cc2)CC1 [Compound I-753, 1-(1H-1,3-benzodiazol-2-yl)-3-[1-(cyclopentanesulfonyl)piperidin-4-yl]-4-[2-(4-fluorophenyl)ethyl]-1H-pyrazol-5-ol]		76.5		95.8	2.04e-08				
CC(=O)N1CCCC(c2nn(-c3nc4ccccc4[nH]3)c(O)c2CCc2ccc(F)cc2)C1 (stereo not shown) [Compound I-754, 1-{3-[1-(1H-1,3-benzodiazol-2-yl)-4-[2-(4-fluorophenyl)ethyl]-5-hydroxy-1H-pyrazol-3-yl]piperidin-1-yl}ethan-1-one]	37.4	37.4	97.2	97.2	4.77e-07	2.33e-11	7.32e-06	5.14	Kd [3, 6]: 2.33e-11 M; T, minutes (residence time) [3, 8]: 8.05E + 05 minutes
O=C(c1cnccn1)N1CCCC(c2nn(-c3nc4ccccc4[nH]3)c(O)c2CCc2ccc(F)cc2)C1 (stereo not shown) [Compound I-756, 1-(1H-1,3-benzodiazol-2-yl)-4-[2-(4-fluorophenyl)ethyl]-3-[1-(pyrazine-2-carbonyl)piperidin-3-yl]-1H-pyrazol-5-ol]		34.3		101.9					Nef NL4-3 Binding, SPR 1:1 or 2-site fitting KD1 ([3]; Table 1, 1:1 Langmuir fit where the KD2 cell says '1 to 1 fitting', else 2-site fit): No Interaction
O=C(Cc1ccncc1)N1CCCC(c2nn(-c3nc4ccccc4[nH]3)c(O)c2CCc2ccc(F)cc2)C1 (stereo not shown) [Compound I-757, 1-{3-[1-(1H-1,3-benzodiazol-2-yl)-4-[2-(4-fluorophenyl)ethyl]-5-hydroxy-1H-pyrazol-3-yl]piperidin-1-yl}-2-(pyridin-4-yl)ethan-1-one]		17.2		102.8	2.39e-06				
O=S(=O)(c1cccnc1)N1CCCC(c2nn(-c3nc4ccccc4[nH]3)c(O)c2CCc2ccc(F)cc2)C1 (stereo not shown) [Compound I-758, 1-(1H-1,3-benzodiazol-2-yl)-4-[2-(4-fluorophenyl)ethyl]-3-[1-(pyridine-3-sulfonyl)piperidin-3-yl]-1H-pyrazol-5-ol]	54.9	54.9	99.8	99.8	6.31e-08			2.95	Kd ([3]; KD, M, Table 4, SPR fit 1:1 Langmuir, KD = koff/kon): 6.81e-08 M; T, minutes (residence time) ([3]; Table 4, 1:1 Langmuir fit, T = 1/koff): 9.21E + 01 minutes
O=C(c1cnccn1)N1CCCC1c1nn(-c2nc3ccccc3[nH]2)c(O)c1CCc1ccc(F)cc1 (stereo not shown) [Compound I-759, 1-(1H-1,3-benzodiazol-2-yl)-4-[2-(4-fluorophenyl)ethyl]-3-[1-(pyrazine-2-carbonyl)pyrrolidin-2-yl]-1H-pyrazol-5-ol]		-7.6		98.2	2.21e-07				
